The text below walks through data of article PMC6274376, “Naturally Inspired Molecules as Multifunctional Agents for Alzheimer’s Disease Treatment” (Molecules, 2016).

The test can be described thus: UV-vis spectrophotometric evaluation of Cu(II) ion complexation. It counts as physicochemical. From the text:
Chalcone conjugates 4 and 5 were investigated to evaluate their ability to complex Cu(II) ions via a UV-vis spectrophotometric study.
Therefore, we decided to carry on the spectrophotometric measurements in a mixed solvent: aqueous MOPS aqueous buffer […] pH 7.4 /DMF in 1:4 ratio, respectively. Flavonoids bearing the 4-carbonyl-5-hydroxyl chelation site have characteristic UV-vis spectra, characterized by a wide and non-structured band centred around 370–380 nm, with a molar extinction coefficient of 50,000 cm^−1·M^−1 that is attributed to HOMO-LUMO transition with a π-π* character.
All reagents and solvents were used as received (from Aldrich, St. Louis, MO, USA) without further purification: copper(II) sulphate hydrate (≥98%), 3-(N-Morpholino)propanesulfonic acid (MOPS, ≥99.5%), sodium hydroxide (≥98%), N,N-dimethylformamide (spectroscopic grade, DMF). A Milli-Q system (Millipore, Billerica, MA, USA) was used for the purification of water (resistivity ≥18.2 MΩ). MOPS bufferstock solution were obtained by a dissolution in Milli-Q water of 3-(N-morpholino)propane sulphonic acid to a final concentration of 10^−3 M. The pH was corrected with a solution of sodium hydroxide 1 N to a value of pH 7.4. Absorption spectra were recorded on a Perkin-Elmer Lambda 45 spectrophotometer at room temperature. Spectrophotometric titrations were performed as follows: stock solutions of ligands (ca. 10^−3 M) were prepared in DMF, diluted down to the desired concentration, in the quartz cuvette, in MOPS buffer 10^−3 M pH 7.4/DMF (1:4) to a final volume of 2.5 mL and then titrated by adding increasing amounts of Cu(II) (3.04 × 10^−3 Min DMF).

SMILES strings stand for the structures.

For `CN(Cc1ccccc1)Cc1ccc(C(=O)c2ccc(OCCOc3ccc(C(=O)/C=C/c4cccc5ccccc45)c(O)c3)cc2)cc1` [Compound 5, E-1-{4-[2-(4-4-Benzylmethylaminomethylbenzoylphenoxy)ethoxy]-2-hydroxyphenyl}-3-(naphthalen-1-yl)-prop-2-en-1-one], the “ability to complex Cu(II) ions” value (UV-vis spectra, MOPS buffer pH 7.4/DMF 1:4) is “able to chelate the selected ion”. Moreover, the “association constant (order of magnitude)” value (estimated from titration data, 1:1 complex stoichiometry with Cu(II), MOPS pH 7.4/DMF 1:4) is given as ~10^4.
